Values after ≈ are worked out from the molar mass of the structure shown. Residues, ends and D or L forms follow the SMILES beside them.
Key:
E. coli BL-21 = assay type: cell-based, Escherichia coli
Method: The E. coli, P. aeruginosa, and P. syringae bacterial strains were routinely grown in LB broth (EMD Chemicals, Gibbstown, N.J.). […] All other bacteria were grown at 37° C. with agitation.
Overnight bacterial cultures were diluted to an OD of 0.01. μL of diluted culture and 10 μL of 10× peptide or vehicle were added to the wells of a 96-well microtiter plate for a final 1× concentration. Bacteria were grown in desired growth conditions in a Synergy H1 Microplate Reader (Biotek, Winooski, Vt.). For MIC, serial two-fold dilutions of the peptides were used. MIC was determined as the concentration of peptide that prevented overnight growth as indicated by OD 600.

[1] = test system: sheep red blood cells (RBCs); details: compared to the PBS control
Method: For hemolysis assays, 100 μL of sheep red blood cells (RBCs) were washed three times in cold PBS (Thermo Fischer). Washed cells were resuspended in 25 mL of PBS. Triton, PBS, or peptide in 10% DMSO/PBS were added to 180 μL of resuspended RBCs and incubated at 37° C. for 1 h. Samples were read at 450 nm. Data was expressed as percent hemolysis by relativizing to the Triton and PBS controls.

[2] = test system: Pseudomonas aeruginosa PAO1
Excerpt: (§1) E. coli BL-21 frozen stock culture was purchased from Thermo Fischer. Pseudomonas aeruginosa PAO1 frozen stock culture was obtained from the Shrout Laboratory at the University of Notre Dame. Pseudomonas syringae frozen stock culture was obtained from the Innes Laboratory at Indiana University. Xanthomonas axonopodis pathovar Starr and Garces pathovar phaseoli (ATCC 9563) frozen stock culture was purchased from the ATCC. Streptococcus pyogenes M1T1 frozen stock culture was obtained from the lab of Dr. Victor Nizet, University of California San Diego. A methicillin resistant Staphylococcus aureus JKD frozen stock culture was obtained from the lab of Dr. Timothy Stinear, University of Melbourne.
(§2) The E. coli, P. aeruginosa, and P. syringae bacterial strains were routinely grown in LB broth (EMD Chemicals, Gibbstown, N.J.). S. aureus and S. pyogenes were routinely grown in Todd Hewitt broth (Neogen Corporation, Lansing, Mich.). X. axonopodis was routinely grown in Nutrient Broth (Sigma-Aldrich Co., St. Louis, Mo.). P. syringae and X. axonopodis were grown at room temperature without agitation. All other bacteria were grown at 37° C. with agitation.
(§3) Overnight bacterial cultures were diluted to an OD of 0.01. […] and 10 μL of 10× peptide or vehicle were added to the wells of a 96-well microtiter plate for a final 1× concentration. Bacteria were grown in desired growth conditions in a Synergy H1 Microplate Reader (Biotek, Winooski, Vt.). For MIC, serial two-fold dilutions of the peptides were used. MIC was determined as the concentration of peptide that prevented overnight growth as indicated by OD 600. For peptide screening, 8 μM or 4 μM peptide was screened against various bacteria. Peptides that inhibited overnight growth were selected for further study.

[3] = test system: Streptococcus pyogenes M1T1
Excerpt: as §1, §2, §3

| Compound | MIC E. coli (E. coli BL-21) [µM] | hemolysis of library peptides [1] | MIC P. aeruginosa [2] [µM] | MIC S. pyogenes [3] [µM] |
| --- | --- | --- | --- | --- |
| CC[C@H](C)[C@H](NC(=O)[C@H](CCC(=O)O)NC(=O)[C@H](CC(N)=O)NC(=O)[C@H](CCCCN)NC(=O)[C@H](CC(C)C)NC(=O)[C@H](Cc1ccc(O)cc1)NC(=O)[C@H](CCCCN)NC(=O)[C@H](CCCNC(=N)N)NC(=O)[C@@H](NC(=O)[C@@H](NC(=O)[C@H](CCC(=O)O)NC(=O)[C@H](CCCCN)NC(=O)[C@H](Cc1c[nH]c2ccccc12)NC(=O)[C@H](C)N)[C@@H](C)O)[C@@H](C)CC)C(=O)N[C@@H](CCCCN)C(=O)N[C@@H](CCCCN)C(=O)N[C@@H](CCCCN)C(=O)N[C@@H](Cc1c[nH]c2ccccc12)C(=O)N[C@@H](CCCNC(=N)N)C(=O)N[C@@H](CCCCN)C(=O)N[C@@H](C)C(=O)N[C@H](C(=O)N[C@H](C(=O)N[C@@H](C)C(=O)N[C@@H](Cc1c[nH]c2ccccc12)C(=O)O)[C@@H](C)CC)C(C)C [Peptide 94] (H-AWKETIRKYLKNEIKKKWRKAVIAW-OH) | 2 (≈ 6.38 µg/mL) | low levels of hemolysis at higher concentrations | 8 | 10 |
| CC[C@H](C)[C@H](NC(=O)[C@H](CCCCN)NC(=O)[C@H](CC(N)=O)NC(=O)[C@H](CCCCN)NC(=O)[C@H](CC(C)C)NC(=O)[C@H](Cc1ccc(O)cc1)NC(=O)[C@H](CCC(N)=O)NC(=O)[C@H](CCCNC(=N)N)NC(=O)[C@@H](NC(=O)[C@@H](NC(=O)[C@H](CCCCN)NC(=O)[C@H](CCCCN)NC(=O)CNC(=O)[C@H](C)N)[C@@H](C)O)[C@@H](C)CC)C(=O)N[C@@H](CCCCN)C(=O)N[C@@H](CCCCN)C(=O)N[C@@H](CCCCN)C(=O)NCC(=O)N[C@@H](CCCNC(=N)N)C(=O)N[C@@H](CCCCN)C(=O)N[C@@H](Cc1c[nH]c2ccccc12)C(=O)N[C@H](C(=O)N[C@H](C(=O)N[C@@H](C)C(=O)N[C@@H](Cc1c[nH]c2ccccc12)C(=O)O)[C@@H](C)CC)C(C)C [Peptide 60] (H-AGKKTIRQYLKNKIKKKGRKWVIAW-OH) | – | no significant changes in hemolysis | – | – |
| CC[C@H](C)[C@H](NC(=O)[C@H](CCC(=O)O)NC(=O)[C@H](CC(N)=O)NC(=O)[C@H](CCCCN)NC(=O)[C@H](CC(C)C)NC(=O)[C@H](Cc1ccc(O)cc1)NC(=O)[C@H](CCC(N)=O)NC(=O)[C@H](CCCNC(=N)N)NC(=O)[C@@H](NC(=O)[C@@H](NC(=O)[C@H](CCCCN)NC(=O)[C@H](CCCCN)NC(=O)[C@H](Cc1c[nH]c2ccccc12)NC(=O)[C@H](C)N)[C@@H](C)O)[C@@H](C)CC)C(=O)N[C@@H](CCCCN)C(=O)N[C@@H](CCCCN)C(=O)N[C@@H](CCCCN)C(=O)N[C@@H](Cc1c[nH]c2ccccc12)C(=O)N[C@@H](CCCNC(=N)N)C(=O)N[C@@H](CCCCN)C(=O)N[C@@H](C)C(=O)N[C@H](C(=O)N[C@H](C(=O)N[C@@H](C)C(=O)N[C@@H](Cc1c[nH]c2ccccc12)C(=O)O)[C@@H](C)CC)C(C)C [Peptide 90] (H-AWKKTIRQYLKNEIKKKWRKAVIAW-OH) | 2 (≈ 6.37 µg/mL) | low levels of hemolysis at higher concentrations | – | 8 |
| CC[C@H](C)[C@H](NC(=O)[C@H](CCCCN)NC(=O)[C@H](CC(N)=O)NC(=O)[C@H](CCCCN)NC(=O)[C@H](CC(C)C)NC(=O)[C@H](Cc1ccc(O)cc1)NC(=O)[C@H](CCC(N)=O)NC(=O)[C@H](CCCNC(=N)N)NC(=O)[C@@H](NC(=O)[C@@H](NC(=O)[C@H](CCC(=O)O)NC(=O)[C@H](CCCCN)NC(=O)[C@H](Cc1c[nH]c2ccccc12)NC(=O)[C@H](C)N)[C@@H](C)O)[C@@H](C)CC)C(=O)N[C@@H](CCCCN)C(=O)N[C@@H](CCCCN)C(=O)N[C@@H](CCCCN)C(=O)N[C@@H](Cc1c[nH]c2ccccc12)C(=O)N[C@@H](CCCNC(=N)N)C(=O)N[C@@H](CCCCN)C(=O)N[C@@H](C)C(=O)N[C@H](C(=O)N[C@H](C(=O)N[C@@H](C)C(=O)N[C@@H](Cc1c[nH]c2ccccc12)C(=O)O)[C@@H](C)CC)C(C)C [Peptide 91] (H-AWKETIRQYLKNKIKKKWRKAVIAW-OH) | 2 (≈ 6.37 µg/mL) | low levels of hemolysis at higher concentrations | – | 10 |
| CC[C@H](C)[C@H](NC(=O)[C@H](CCCCN)NC(=O)[C@H](CCC(=O)O)NC(=O)[C@H](CCCCN)NC(=O)[C@H](Cc1c[nH]c2ccccc12)NC(=O)[C@H](C)N)C(=O)N[C@@H](CCCNC(=N)N)C(=O)N[C@@H](CCC(N)=O)C(=O)N[C@@H](Cc1ccc(O)cc1)C(=O)N[C@@H](CC(C)C)C(=O)N[C@@H](CCCCN)C(=O)N[C@@H](CC(N)=O)C(=O)N[C@@H](CCC(=O)O)C(=O)N[C@H](C(=O)N[C@@H](CCCCN)C(=O)N[C@@H](CCCCN)C(=O)N[C@@H](CCCCN)C(=O)N[C@@H](Cc1c[nH]c2ccccc12)C(=O)N[C@@H](CCCNC(=N)N)C(=O)N[C@@H](CCCCN)C(=O)N[C@@H](C)C(=O)N[C@H](C(=O)N[C@H](C(=O)N[C@@H](C)C(=O)N[C@@H](Cc1c[nH]c2ccccc12)C(=O)O)[C@@H](C)CC)C(C)C)[C@@H](C)CC [Peptide 93] (H-AWKEKIRQYLKNEIKKKWRKAVIAW-OH) | 1 (≈ 3.21 µg/mL) | low levels of hemolysis at higher concentrations | – | 8 |
| CC[C@H](C)[C@H](NC(=O)[C@H](CCCCN)NC(=O)[C@H](CC(N)=O)NC(=O)[C@H](CCCCN)NC(=O)[C@H](CC(C)C)NC(=O)[C@H](Cc1ccc(O)cc1)NC(=O)[C@H](CCC(N)=O)NC(=O)[C@H](CCCNC(=N)N)NC(=O)[C@@H](NC(=O)[C@@H](NC(=O)[C@H](CCCCN)NC(=O)[C@H](CCCCN)NC(=O)[C@H](Cc1c[nH]c2ccccc12)NC(=O)[C@H](C)N)[C@@H](C)O)[C@@H](C)CC)C(=O)N[C@@H](CCCCN)C(=O)N[C@@H](CCCCN)C(=O)N[C@@H](CCCCN)C(=O)N[C@@H](Cc1c[nH]c2ccccc12)C(=O)N[C@@H](CCCNC(=N)N)C(=O)N[C@@H](CCCCN)C(=O)N[C@@H](C)C(=O)N[C@H](C(=O)N[C@H](C(=O)N[C@@H](C)C(=O)N[C@@H](Cc1c[nH]c2ccccc12)C(=O)O)[C@@H](C)CC)C(C)C [Peptide 92] (H-AWKKTIRQYLKNKIKKKWRKAVIAW-OH) | 4 (≈ 12.7 µg/mL) | no significant changes in hemolysis | – | 8 |
| CC[C@H](C)[C@H](NC(=O)[C@H](CCCCN)NC(=O)[C@H](CC(N)=O)NC(=O)[C@H](CCCCN)NC(=O)[C@H](CC(C)C)NC(=O)[C@H](Cc1ccc(O)cc1)NC(=O)[C@H](CCC(N)=O)NC(=O)[C@H](CCCNC(=N)N)NC(=O)[C@@H](NC(=O)[C@@H](NC(=O)[C@H](CCCCN)NC(=O)[C@H](CCCCN)NC(=O)[C@H](Cc1c[nH]c2ccccc12)NC(=O)[C@H](C)N)[C@@H](C)O)[C@@H](C)CC)C(=O)N[C@@H](CCCCN)C(=O)N[C@@H](CCCCN)C(=O)N[C@@H](CCCCN)C(=O)NCC(=O)N[C@@H](CCCNC(=N)N)C(=O)N[C@@H](CCCCN)C(=O)N[C@@H](C)C(=O)N[C@H](C(=O)N[C@H](C(=O)N[C@@H](C)C(=O)N[C@@H](Cc1c[nH]c2ccccc12)C(=O)O)[C@@H](C)CC)C(C)C [Peptide 20] (H-AWKKTIRQYLKNKIKKKGRKAVIAW-OH) | 8 (≈ 24.5 µg/mL) | no significant changes in hemolysis | 10 | 8 |
| CC[C@H](C)[C@H](NC(=O)[C@H](CCCCN)NC(=O)[C@H](CCC(=O)O)NC(=O)[C@H](CCCCN)NC(=O)[C@H](Cc1c[nH]c2ccccc12)NC(=O)[C@H](C)N)C(=O)N[C@@H](CCCNC(=N)N)C(=O)N[C@@H](CCCCN)C(=O)N[C@@H](CCCCN)C(=O)N[C@@H](CC(C)C)C(=O)N[C@@H](CCCCN)C(=O)N[C@@H](CC(N)=O)C(=O)N[C@@H](CCC(=O)O)C(=O)N[C@H](C(=O)N[C@@H](CCCCN)C(=O)N[C@@H](CCCCN)C(=O)N[C@@H](CCCCN)C(=O)N[C@@H](Cc1c[nH]c2ccccc12)C(=O)N[C@@H](CCCNC(=N)N)C(=O)N[C@@H](CCCCN)C(=O)N[C@@H](C)C(=O)N[C@H](C(=O)N[C@H](C(=O)N[C@@H](C)C(=O)N[C@@H](Cc1c[nH]c2ccccc12)C(=O)O)[C@@H](C)CC)C(C)C)[C@@H](C)CC [Peptide 96] (H-AWKEKIRKKLKNEIKKKWRKAVIAW-OH) | 2 (≈ 6.36 µg/mL) | no significant changes in hemolysis | 8 | 8 |
